Results as given in PubChem BioAssay (NCI).
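Growth conditions: 96-well plates. Treatment: test compound, 48 hours, 5 concentrations. Analysis: linear interpolation between bracketing concentrations; unreached endpoints set to highest concentration. TGI is the concentration that stops growth completely.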

Legend:
Test in all cases: NCI-60 cell line screen, 48 h
ACHN renal = system: ACHN renal
RXF-631 renal = system: RXF-631 renal
SF-295 CNS = system: SF-295 CNS
UO-31 renal = system: UO-31 renal
KM12 colon = system: KM12 colon
HOP-18 NSCLC = system: HOP-18 NSCLC
786-0 renal = system: 786-0 renal
COLO 205 colon = system: COLO 205 colon
KM20L2 colon = system: KM20L2 colon
SR leukemia = system: SR leukemia
A498 renal = system: A498 renal
HOP-92 NSCLC = system: HOP-92 NSCLC
SN12C renal = system: SN12C renal
OVCAR-5 ovarian = system: OVCAR-5 ovarian
HCT-15 colon = system: HCT-15 colon
HCT-116 colon = system: HCT-116 colon
DLD-1 colon = system: DLD-1 colon
OVCAR-8 ovarian = system: OVCAR-8 ovarian
HCC-2998 colon = system: HCC-2998 colon
SF-268 CNS = system: SF-268 CNS
K-562 leukemia = system: K-562 leukemia
UACC-62 melanoma = system: UACC-62 melanoma
HL-60(TB) leukemia = system: HL-60(TB) leukemia
SK-MEL-2 melanoma = system: SK-MEL-2 melanoma
HOP-62 NSCLC = system: HOP-62 NSCLC
TK-10 renal = system: TK-10 renal
LXFL 529 NSCLC = system: LXFL 529 NSCLC
SK-MEL-5 melanoma = system: SK-MEL-5 melanoma
RXF 393 renal = system: RXF 393 renal
RPMI-8226 leukemia = system: RPMI-8226 leukemia
DMS 273 small cell lung = system: DMS 273 small cell lung
SK-OV-3 ovarian = system: SK-OV-3 ovarian
LOX IMVI melanoma = system: LOX IMVI melanoma
M14 melanoma = system: M14 melanoma
MOLT-4 leukemia = system: MOLT-4 leukemia
UACC-257 melanoma = system: UACC-257 melanoma
EKVX NSCLC = system: EKVX NSCLC
NCI-H23 lung = system: NCI-H23 lung
SF-539 CNS = system: SF-539 CNS
CCRF-CEM leukemia = system: CCRF-CEM leukemia
IGROV1 ovarian = system: IGROV1 ovarian
NCI-H226 lung = system: NCI-H226 lung
A549 NSCLC = system: A549 NSCLC
XF 498 CNS = system: XF 498 CNS
NCI-H460 lung = system: NCI-H460 lung
MALME-3M melanoma = system: MALME-3M melanoma
CAKI-1 renal = system: CAKI-1 renal
SNB-19 CNS = system: SNB-19 CNS
OVCAR-4 ovarian = system: OVCAR-4 ovarian
SNB-75 CNS = system: SNB-75 CNS
SK-MEL-28 melanoma = system: SK-MEL-28 melanoma
SW-620 colon = system: SW-620 colon
NCI-H522 lung = system: NCI-H522 lung
HT29 colon = system: HT29 colon
SNB-78 CNS = system: SNB-78 CNS
U251 CNS = system: U251 CNS
M19-MEL melanoma = system: M19-MEL melanoma
DMS 114 small cell lung = system: DMS 114 small cell lung

Measured: TGI

Cc1ccc2nc(NC(=O)/C(=N\NC(=S)NN)C3C(=O)NC(=S)NC3=O)sc2c1
> 100 µM: ACHN renal | RXF-631 renal | SF-295 CNS | UO-31 renal | KM12 colon | HOP-18 NSCLC | 786-0 renal | COLO 205 colon | KM20L2 colon | SR leukemia | A498 renal | HOP-92 NSCLC | SN12C renal | OVCAR-5 ovarian | HCT-15 colon | HCT-116 colon | DLD-1 colon | OVCAR-8 ovarian | HCC-2998 colon | SF-268 CNS | K-562 leukemia | UACC-62 melanoma | HL-60(TB) leukemia | SK-MEL-2 melanoma | HOP-62 NSCLC | TK-10 renal | LXFL 529 NSCLC | SK-MEL-5 melanoma | RXF 393 renal | RPMI-8226 leukemia | DMS 273 small cell lung | SK-OV-3 ovarian | LOX IMVI melanoma | M14 melanoma | MOLT-4 leukemia | UACC-257 melanoma | EKVX NSCLC | NCI-H23 lung | SF-539 CNS | CCRF-CEM leukemia | IGROV1 ovarian | NCI-H226 lung | A549 NSCLC | XF 498 CNS | NCI-H460 lung | MALME-3M melanoma | CAKI-1 renal | SNB-19 CNS | OVCAR-4 ovarian | SNB-75 CNS | SK-MEL-28 melanoma | SW-620 colon | NCI-H522 lung | HT29 colon | SNB-78 CNS | U251 CNS

Cc1cc(Cl)ccc1NC(=O)C(=O)C(C(=O)c1ccccc1)C1OC(=O)c2ccccc21 (stereo unspecified)
> 100 µM: ACHN renal | M19-MEL melanoma | SF-295 CNS | UO-31 renal | KM12 colon | HOP-18 NSCLC | 786-0 renal | COLO 205 colon | KM20L2 colon | SR leukemia | A498 renal | HOP-92 NSCLC | SN12C renal | OVCAR-5 ovarian | HCT-15 colon | HCT-116 colon | DLD-1 colon | OVCAR-8 ovarian | HCC-2998 colon | SF-268 CNS | K-562 leukemia | UACC-62 melanoma | HL-60(TB) leukemia | SK-MEL-2 melanoma | HOP-62 NSCLC | DMS 114 small cell lung | TK-10 renal | LXFL 529 NSCLC | SK-MEL-5 melanoma | RXF 393 renal | RPMI-8226 leukemia | DMS 273 small cell lung | SK-OV-3 ovarian | LOX IMVI melanoma | M14 melanoma | MOLT-4 leukemia | UACC-257 melanoma | EKVX NSCLC | NCI-H23 lung | SF-539 CNS | CCRF-CEM leukemia | IGROV1 ovarian | NCI-H226 lung | A549 NSCLC | XF 498 CNS | NCI-H460 lung | MALME-3M melanoma | CAKI-1 renal | SNB-19 CNS | OVCAR-4 ovarian | SNB-75 CNS | SK-MEL-28 melanoma | SW-620 colon | NCI-H522 lung | HT29 colon | SNB-78 CNS | U251 CNS

CCOC(=O)C(=O)NC12CC3CC(CC(C3)C1)C2
> 100 µM: ACHN renal | RXF-631 renal | SF-295 CNS | UO-31 renal | KM12 colon | HOP-18 NSCLC | COLO 205 colon | KM20L2 colon | A498 renal | HOP-92 NSCLC | SN12C renal | OVCAR-5 ovarian | HCT-15 colon | HCT-116 colon | DLD-1 colon | OVCAR-8 ovarian | HCC-2998 colon | SF-268 CNS | K-562 leukemia | UACC-62 melanoma | HL-60(TB) leukemia | SK-MEL-2 melanoma | HOP-62 NSCLC | DMS 114 small cell lung | TK-10 renal | LXFL 529 NSCLC | SK-MEL-5 melanoma | RXF 393 renal | RPMI-8226 leukemia | DMS 273 small cell lung | SK-OV-3 ovarian | LOX IMVI melanoma | M14 melanoma | UACC-257 melanoma | EKVX NSCLC | NCI-H23 lung | SF-539 CNS | CCRF-CEM leukemia | IGROV1 ovarian | NCI-H226 lung | A549 NSCLC | XF 498 CNS | NCI-H460 lung | MALME-3M melanoma | CAKI-1 renal | SNB-19 CNS | OVCAR-4 ovarian | SNB-75 CNS | SK-MEL-28 melanoma | SW-620 colon | NCI-H522 lung | HT29 colon | U251 CNS
